Source: US20240217946A1, “ANTIDEPRESSANT AND ANXIOLYTIC SUBSTITUTED CINNAMAMIDE COMPOUND” (TASLY PHARMACEUTICAL GROUP CO., LTD., priority 2021, published 2024)

What was measured:
mice [1] = settings: mouse, in vivo; cited from earlier work
SD rats = assay: Vogel drinking conflict experiment in rats, single administration; type: in vivo
Method: 75 male SD rats, with the body weight of 180-220 g, were fed adaptively for 1 week, water deprived for 24 h for training period test. The animals screened to be qualified were randomly divided into 7 groups (a solvent control group, estazolam group, compound M2 group, compound II-3 group, compound II-4 group, compound II-5 group and compound II-10 group) according to their body weight, with 8 rats in each group. […] results of 3.1: the positive drug estazolam was administered intragastrically at 1.24 mg/kg; and the solvent control group was gavaged with an equal volume of solvent. The grouped animals were continued to be water deprived for 24 h and were given a single dose, and tested in a punishment experiment 30 min after the single dose.
The experiment was carried out in two stages. The first stage is a training stage, in which 24 h after water deprivation, animals were placed in an operation box separately, and were allowed to fully explore until they found the bottle mouth and started to lick water (with an intensity of electric shock being 0 mA), a counter automatically recorded the number of licks within 3 min, and the animals that licked water less than 300 times were eliminated.
Observation index: the number of water licks of rats in the punishment stage.
(§1) Data was expressed as mean±standard (mean±SD) difference, and statistics of data differences were made by one-way analysis of variance (ANOVA) or nonparametric test, and differences between groups were determined by P<0.05.

ICR mice = assay: Elevated plus maze experiment in mice, single administration; type: in vivo
Method: 50 male ICR mice were randomly divided into 5 groups (a solvent control group, estazolam group, M2 high dosage group, M2 medium dosage group, M2 low dosage group), with 10 mice in each group. The compound M2 high, medium and low dosage groups were intragastrically administered at 20 mg/kg. 10 mg/kg and 5 mg/kg, respectively; the positive drug estazolam was intragastrically administered at 2.5 mg/kg; and the solvent control group was gavaged with an equal volume of solvent. Behavior test was performed in each group 30 min after single administration. The experiments were required to be conducted between 8:00 am and […], and all animals entered the test laboratory on the previous day.
The laboratory was dimly lit (with the lowest brightness that can distinguish the subtle activities of mice at a distance of 1.5 m) and the brightness was kept constant, with a room temperature of about 20° C., and kept quiet. Before the maze test, each mouse was placed in a 35 cm*10 cm*5 cm plastic box and left to explore freely for 5 min and then quickly placed at the central platform of an elevated plus maze, with its head facing one of the open arms, and the following indexes were recorded upon release. Each mouse was tested for 5 min. Observers observed and recorded animal activities at a distance of 1.5 m. At intervals, the maze was wiped with a wet cloth to remove feces, and then wiped with a dry cloth before a next mouse was tested.
• (1) The number of open arm entries (OE): the number of entries into any open arm, based on the fact that all four claws of the mouse entered the arm, and a complete exit of one claw from the arm indicated the completion of the entry activity; • (2) open arm time (OT): the time of entering an open arm, with the unit of seconds; • (3) the number of close arm entries (CE): the number of entries into any close arm, based on the fact that all four claws of the mouse entered the arm; • (4) close arm time (CT): the time of entering a close arm, with the unit of seconds; • (5) percentage of open arm time: OT %=OT/(OT+CT)*100%; and • (6) percentage of open arm entries: OE %=OE/(OE+CE)*100%.
70 male ICR mice were randomly divided into 7 groups (a solvent control group, estazolam group, compound M2 group, compound II-3 group, compound II-4 group, compound II-5 group, and compound II-10 group), with 10 mice in each group. The dosage of M2 and its four structurally similar compounds was determined as 20 mg/kg according to the experimental results of 3.1: the positive drug estazolam was administered intragastrically at 2.5 mg/kg; and the solvent control group was gavaged with an equal volume of solvent. Behavior test was performed in each group 30 min after single administration. The experiments were required to be conducted between 8:00 am and […], and all animals entered the test laboratory on the previous day.
The behavioral test method and behavioral observation indexes were the same as those in 3.1.
as §1

mice [2] = settings: 10 mg/kg for 7 days; cited from earlier work
mice [3] = settings: 10 mg/kg continuously for 7 days; cited from earlier work
[4] = comparative study (Table 13), 20 mg/kg i.g., 30 min after single administration

O=C(/C=C/c1cc2c(c(C(F)(F)F)c1)OCO2)N1CCCCC1 [Compound II-10]
immobility time of forced swimming in mice (mice [1]): significantly shorten the immobility time
Number of times of drinking water (SD rats; 10 mg/kg i.g., 30 min after single dose, punishment stage 3 min, n = 8): 499.61 ± 133.93
anxiolytic activity in drinking conflict experiment vs solvent control group (SD rats; single intragastric administration of 20 mg/kg): significant anxiolytic activity
OE % (ICR mice; [4]): 50.00 ± 10.23 %
OT % (ICR mice; [4]): 52.08 ± 12.25 %
anxiolytic activity in elevated plus maze vs solvent control group (ICR mice; comparative study, single intragastric administration of 20 mg/kg): significant anxiolytic activity
immobility time of tail suspension in mice (mice [2]): significantly shorten the immobility time
reserpine-induced body temperature decrease and akinesia in mice, degree of eye closure (mice [3]): significantly antagonizing
